# Experimental data: patent US20120156139A1, “ISOTOPICALLY LABELED NEUROCHEMICAL AGENTS AND USES THEROF FOR DIAGNOSING CONDITIONS AND DISORDERS” (priority 2009, published 2012)
# Key:
# Type in all cases: physicochemical
# [1] = 13C T1 inversion recovery studies of L-DOPA, dopamine and partially deuterated dopamine; details: for T1 of C1 / T1 of C2 / T1 of C3: 13C at natural abundance, inversion recovery, 500 MHz scanner; for Elongation factor, T1 of C1 / Elongation factor, T1 of C2 / Elongation factor, T1 of C3: relative to dopamine HCl (A)
# Description: Inversion recovery studies were carried out on protonated L-DOPA and dopamine and partially deuterated dopamine a in order to determine the ^13C T1 relaxation times in these molecules. The inversion recovery studies were carried out on a 500 MHz scanner (Varian), equipped with a 5 mm double tuned ^13C/^1H probe. Carbon-13 signals were detected in these molecules at natural abundance. The number of transitions ranged between 300 to 400 per relaxation delay (t) with a total scanning time of 12 to 48 hours. Dopamine HCl and L-DOPA were obtained from Sigma-Aldrich (Israel). [1,1,2,2-D4]-Dopamine HCl, and [D3-ring, 2,2-D2]-Dopamine were obtained from Cambridge Isotope Laboratories (MA, USA).
# [2] = T1 values of additional deuterated compounds
# [3] = 13C T1 inversion recovery studies of choline and deuterated cholines at 11.8 T; details: for Elongation factor, T1 of C1 / Elongation factor, T1 of C2: relative to choline Cl- (A)
# Description: The data in Table 2 were obtained using a series of inversion recovery studies at 11.8 T which were carried out in order to determine the ^13C T1 relaxation times of a deuterated choline molecule and of a partially deuterated choline molecule [1,1,2,2-D4]-choline Cr. The T1 of the trimethyl amine position in the fully deuterated choline molecule was 28 sec, which represented an approximate 8 fold elongation factor compared to the native choline molecule in which the trimethyl amine positions are protonated. Inversion recovery studies were carried out on a 500 MHz scanner (Varian), equipped with a 5 mm double tuned ^13C/^1H probe. Carbon-13 signals were detected in these molecules at natural abundance. The number of transitions ranged between 300 to 400 per relaxation delay (r) with a total scanning time of 12 to 67 hours due to a relaxation delay of 130 sec. The data were fitted to the standard inversion recovery equation. The possible effect of concentration on T1 was investigated in a concentration range of 20 mM to […], no significant effect of concentration on T1 was found in this concentration range. Choline Cl^− and [1,1,2,2-D4]-Choline CU were obtained from Sigma-Aldrich (Israel). Choline-D13 Br^− (fully deuterated) was obtained from Cambridge Isotope Laboratories (MA, USA).
# [4] = T1 of position 2 in [1,1,2,2-D4,2-13C]-choline at various magnetic field strengths and temperatures; details: for Liquid state T1 of position 2: DNP-enhanced liquid state sample, 14.1 T
# Description: The T1 of position 2 in [1,1,2,2-D4,2-^13C]-choline was further investigated at various magnetic field strengths and temperatures. The liquid state T1 was measured on a DNP-enhanced liquid state sample at 14.1 T at approx. 37° C. (T1=48±2 sec) and at higher temperatures of between about 40 to about 50° C. (T1=56±4 sec).
# In addition, thermal equilibrium T1 measurement was performed at 9.4 T at 37° C. (T1=41 sec). The low field T1 of [1,1,2,2-D4,2-^13C]-choline was estimated by placing the enhanced sample in the fringe field of an unshielded 14.1 T magnet (n=2). From this experiment it was concluded that the low field T1 is long (>40 s) and that the T1 of the deuterated methylene carbon in choline is less affected by field strength.
# [5] = 13C at natural abundance, inversion recovery, 11.8 T
Structure (SMILES),T1 of C1 [1] [s],T1 of C2 [1] [s],T1 of C3 [1] [s],"T1 of C1 [3, 5] [s]","T1 of C2 [3, 5] [s]",also measured
"N[C@@H](Cc1ccc(O)c(O)c1)C(=O)O [L-DOPA (non deuterated), L-DOPA]",2.3,2.3,3.9,,,
"[2H]C([2H])(NC(=N)N)C([2H])([2H])C([2H])([2H])[C@]([2H])(N)C(=O)O [[2,3,3,4,4,5,5-D7]-arginine, [2,3,3,4,4,5,5-D7]-arginine: NH2C(NH)NHCD2CD2CD2CD(NH2)CO2H]",,,,,,"T1 of carbons at positions 2, 3, 4, and 5 [2]: ~8 s"
"Cl.[2H]C([2H])(N)C([2H])([2H])c1ccc(O)c(O)c1 [[1,1,2,2-D4]-dopamine HCl]",8.7,9.3,6.3,,,"Elongation factor, T1 of C1 [1]: 7.9; Elongation factor, T1 of C2 [1]: 9.3; Elongation factor, T1 of C3 [1]: 1.0"
"Cl.[2H]c1c([2H])c(C([2H])([2H])CN)c([2H])c(O)c1O [[D3 ring,2,2-D2]-dopamine HCl]",1.0,4.4,5.4,,,"Elongation factor, T1 of C1 [1]: 1.0; Elongation factor, T1 of C2 [1]: 4.4; Elongation factor, T1 of C3 [1]: 0.8"
Cl.NCCc1ccc(O)c(O)c1 [dopamine HCl],1.1,1.0,6.4,,,
C[N+](C)(C)CCO.[Cl-] [choline Cl^−],,,,5.2,4.9,
[2H]C([2H])(O)C([2H])([2H])[N+](C([2H])([2H])[2H])(C([2H])([2H])[2H])C([2H])([2H])[2H].[Br-] [[D13]-choline Br^−],,,,32.0,32.9,"T1 of the trimethyl amine position [3, 5]: 28 s; Elongation factor of T1 of the trimethyl amine position ([3]; compared to the native choline molecule with protonated trimethyl amine positions): ~8 fold; Elongation factor, T1 of C1 ([3]; 11.8 T): 6.2; Elongation factor, T1 of C2 ([3]; 11.8 T): 6.7"
"[2H]C([2H])(O)[13C]([2H])([2H])[N+](C)(C)C [[1,1,2,2-D4,2-^13C]-choline]",,,,,,"Thermal equilibrium T1 ([4]; 9.4 T, 37 °C): 41 s; Liquid state T1 of position 2 ([4]; about 40 to about 50 °C): 56 ± 4 s; Liquid state T1 of position 2 ([4]; approx. 37 °C): 48 ± 2 s; Low field T1 ([4]; enhanced sample in the fringe field of an unshielded 14.1 T magnet, n=2, estimated): > 40 s"
"[2H]c1c([2H])c([2H])c2c(C([2H])([2H])[C@]([2H])(N)C(=O)O)c[nH]c2c1[2H] [[D7]-L-tryptophan, [D7]-L-tryptophan: C6D4C(CD2-CD(NH2)COOH)CH—NH]",,,,,,"T1 of position 10 ([2]; dissolved in H2O and 15% D2O (54.5 mM), 11.8 T): ~13 s"
"[2H]C([2H])(O)C([2H])([2H])[N+](C)(C)C.[Cl-] [[1,1,2,2-D4]-choline Cl^−]",,,,29.1,34.9,"Elongation factor, T1 of C1 ([3]; 11.8 T): 5.6; Elongation factor, T1 of C2 ([3]; 11.8 T): 7.1"
